{
  "source": "patent US5560907A",
  "about": "“Whitening embellisher” (Eisai Co., Ltd., priority 1992, dated 1996)",
  "key": {"[1]": {"test_system": "B16 melanoma cells derived from a mouse", "test": "Restraint of melanin production in cultured B16 melanoma cells"}, "[2]": {"test_system": "tyrosinase in the B16 melanoma cells", "test": "Amount of tyrosinase in B16 melanoma cells by SDS-PAGE", "format": "cell-based, mouse", "settings": "culture systems added with teprenone"}, "Solubility in water": {"test": "Solubility in water", "format": "physicochemical", "excerpt": "The whitening and beautifying preparation suitable for use in a bath according to the present invention means a preparation which can be dissolved in hot water in a bathtub upon bathing to use it, and can be provided as tablets, granules, powder, liquid or the like. It can be formulated according to any process generally used."}, "[3]": {"test_system": "tyrosinase, derived from mushroom", "test": "Inhibition of enzyme activity of mushroom tyrosinase", "format": "biochemical", "settings": "concentration of 0.01-0.1%"}, "[4]": {"settings": "Mus musculus, B16, read-out: production of melanin restrained, to control"}},
  "data": [
    {"compound": "OC[C@H]1O[C@@H](Oc2ccc(O)cc2)[C@H](O)[C@@H](O)[C@@H]1O", "note": "[arbutin]", "values": [
      {"measurement": "concentration essential for attaining the same effect of the combined use as kojic acid", "setting": "[1]; arbutin combined with teprenone, equals 10-30 ppm", "value": "1×10^-3 -3×10^-3%"}
    ]},
    {"compound": "CC(=O)CCC=C(C)CCC=C(C)CCC=C(C)CCC=C(C)C", "note": "[teprenone, geranylgeranylacetone]", "values": [
      {"measurement": "inhibition at 0.0001 %", "setting": "[1]; [4]", "value": 85, "unit": "%"},
      {"measurement": "inhibition at 0.0002 %", "setting": "[1]; [4]", "value": 80, "unit": "%"},
      {"measurement": "inhibition at 0.0003 %", "setting": "[1]; [4]", "value": 70, "unit": "%"},
      {"measurement": "reversibility of the melanin inhibiting action", "setting": "[1]; cells cultured again in a system containing no teprenone, melanin greatly increased", "value": "reversible inhibiting action"},
      {"measurement": "cytotoxicity", "setting": "[1]; sample concentrations 1×10^-4 to 3×10^-4 %", "value": "no cytotoxicity was recognized"},
      {"measurement": "amount of tyrosinase in the B16 melanoma cells", "setting": "[2]", "value": "decreased in proportion to the concentration of teprenone added"},
      {"measurement": "solubility in water", "setting": "Solubility in water", "value": "insoluble in water"},
      {"measurement": "action to inhibit the enzyme activity of tyrosinase", "setting": "[3]", "value": "did not exhibit any action to inhibit the enzyme activity"}
    ]}
  ]
}
